Activity calls are given as the source filed them. How the calls were made is not given here.
System: rodent lifetime carcinogenesis bioassay, tumor incidence TD50
Test: carcinogenic potency in animals, long-term in vivo studies, CPDB compilation (AID 1745844)

CC1(C)COC1=O
TD50 (mouse, strain B6C3F1, females, by gavage, site: any site (literature study), lesion: several types, types named in the paper, dosed 102 weeks, study length 103 weeks): 179 mg/kg/day (inactive) | TD50 (mouse, strain B6C3F1, females, by gavage, site: lung, lesion: alveolar/bronchiolar adenoma + alveolar/bronchiolar carcinoma, dosed 102 weeks, study length 103 weeks): 482 mg/kg/day | carcinogen call (mouse, strain B6C3F1, males, by gavage, site: any site (literature study), lesion: several types, types named in the paper, dosed 102 weeks, study length 103 weeks): negative (inactive) | TD50 (mouse, strain B6C3F1, males, by gavage, site: lung, lesion: alveolar/bronchiolar adenoma + alveolar/bronchiolar carcinoma, dosed 102 weeks, study length 103 weeks): 435 mg/kg/day | TD50 (rat, strain Fischer 344, females, by gavage, site: any site (literature study), lesion: several types, types named in the paper, dosed 103 weeks, study length 105 weeks): 200 mg/kg/day | TD50 (rat, strain Fischer 344, females, by gavage, site: stomach, lesion: squamous-cell carcinoma + squamous-cell papilloma, dosed 103 weeks, study length 105 weeks): 333 mg/kg/day | TD50 (rat, strain Fischer 344, males, by gavage, site: any site (literature study), lesion: several types, types named in the paper, dosed 103 weeks, study length 105 weeks): 181 mg/kg/day | TD50 (rat, strain Fischer 344, males, by gavage, site: liver, lesion: hepatocellular adenoma + hepatocellular carcinoma + neoplastic nodule, dosed 103 weeks, study length 105 weeks): 850 mg/kg/day | TD50 (rat, strain Fischer 344, males, by gavage, site: stomach, lesion: squamous-cell carcinoma + squamous-cell papilloma, dosed 103 weeks, study length 105 weeks): 154 mg/kg/day | TD50 (rat, strain Fischer 344, males, by gavage, site: stomach, lesion: squamous-cell carcinoma, dosed 103 weeks, study length 105 weeks): 532 mg/kg/day

ClCOCCOCCl
TD50 (mouse, strain Ha/ICR, females, i.p., site: abdomen, lesion: several types, types named in the paper, dosed 78 weeks, study length 78 weeks): 4.62 mg/kg/day

CC(C)n1c(/C=C/[C@H](O)C[C@H](O)CC(=O)O)c(-c2ccc(F)cc2)c2ccccc21
TD50 (rat, strain Charles River CD (Sprague-Dawley), females, by gavage, site: liver, lesion: hepatocellular adenoma, dosed 104 weeks, study length 104 weeks): 2780 mg/kg/day | TD50 (rat, strain Charles River CD (Sprague-Dawley), females, by gavage, site: liver, lesion: hepatocellular carcinoma, dosed 104 weeks, study length 104 weeks): 916 mg/kg/day | TD50 (rat, strain Charles River CD (Sprague-Dawley), females, by gavage, site: stomach, lesion: papilloma, dosed 104 weeks, study length 104 weeks): 916 mg/kg/day | TD50 (rat, strain Charles River CD (Sprague-Dawley), males, by gavage, site: stomach, lesion: papilloma, dosed 104 weeks, study length 104 weeks): 610 mg/kg/day | TD50 (rat, strain Charles River CD (Sprague-Dawley), males, by gavage, site: stomach, lesion: squamous-cell carcinoma, dosed 104 weeks, study length 104 weeks): 919 mg/kg/day | TD50 (rat, strain Charles River CD (Sprague-Dawley), males, by gavage, site: thyroid gland, lesion: follicular adenocarcinoma, dosed 104 weeks, study length 104 weeks): 258 mg/kg/day | TD50 (rat, strain Charles River CD (Sprague-Dawley), males, by gavage, site: thyroid gland, lesion: follicular-cell adenoma, dosed 104 weeks, study length 104 weeks): 125 mg/kg/day

Brc1cc(Br)c(-c2cc(Br)c(Br)cc2Br)cc1Br
TD50 (mouse, strain B6C3F1, females, by gavage, site: any site (literature study), lesion: several types, types named in the paper, dosed 26 weeks, study length 131 weeks): 0.338 mg/kg/day | TD50 (mouse, strain B6C3F1, females, by gavage, site: liver, lesion: hepatocellular adenoma + hepatocellular carcinoma + neoplastic nodule, dosed 26 weeks, study length 131 weeks): 0.402 mg/kg/day | TD50 (mouse, strain B6C3F1, females, by gavage, site: liver, lesion: hepatocellular carcinoma, dosed 26 weeks, study length 131 weeks): 0.534 mg/kg/day | TD50 (mouse, strain B6C3F1, females, by gavage, site: lung, lesion: alveolar/bronchiolar adenoma + alveolar/bronchiolar carcinoma, dosed 26 weeks, study length 131 weeks): 0.915 mg/kg/day | TD50 (mouse, strain B6C3F1, females, in feed, site: any site (literature study), lesion: several types, types named in the paper, dosed 105 weeks, study length 105 weeks): 0.362 mg/kg/day | TD50 (mouse, strain B6C3F1, females, in feed, site: liver, lesion: hepatocellular adenoma + hepatoblastoma + hepatocellular carcinoma, dosed 105 weeks, study length 105 weeks): 0.307 mg/kg/day | TD50 (mouse, strain B6C3F1, females, in feed, site: liver, lesion: hepatocellular adenoma + hepatocellular carcinoma, dosed 105 weeks, study length 105 weeks): 0.307 mg/kg/day | TD50 (mouse, strain B6C3F1, females, in feed, site: liver, lesion: hepatocellular adenoma, dosed 105 weeks, study length 105 weeks): 0.367 mg/kg/day | TD50 (mouse, strain B6C3F1, females, in feed, site: liver, lesion: hepatocellular carcinoma, dosed 105 weeks, study length 105 weeks): 0.588 mg/kg/day | TD50 (mouse, strain B6C3F1, females, in feed, site: lung, lesion: alveolar/bronchiolar adenoma + alveolar/bronchiolar carcinoma, dosed 105 weeks, study length 105 weeks): 19.1 mg/kg/day | TD50 (mouse, strain B6C3F1, males, by gavage, site: any site (literature study), lesion: several types, types named in the paper, dosed 26 weeks, study length 131 weeks): 0.418 mg/kg/day | TD50 (mouse, strain B6C3F1, males, by gavage, site: liver, lesion: hepatocellular adenoma + hepatocellular carcinoma + neoplastic nodule, dosed 26 weeks, study length 131 weeks): 0.285 mg/kg/day | TD50 (mouse, strain B6C3F1, males, by gavage, site: liver, lesion: hepatocellular carcinoma, dosed 26 weeks, study length 131 weeks): 0.381 mg/kg/day | TD50 (mouse, strain B6C3F1, males, in feed, site: any site (literature study), lesion: several types, types named in the paper, dosed 105 weeks, study length 105 weeks): 0.349 mg/kg/day | TD50 (mouse, strain B6C3F1, males, in feed, site: liver, lesion: hepatocellular adenoma + hepatoblastoma + hepatocellular carcinoma, dosed 105 weeks, study length 105 weeks): 0.262 mg/kg/day | TD50 (mouse, strain B6C3F1, males, in feed, site: liver, lesion: hepatocellular adenoma + hepatocellular carcinoma, dosed 105 weeks, study length 105 weeks): 0.262 mg/kg/day | TD50 (mouse, strain B6C3F1, males, in feed, site: liver, lesion: hepatocellular adenoma, dosed 105 weeks, study length 105 weeks): 0.233 mg/kg/day | TD50 (mouse, strain B6C3F1, males, in feed, site: liver, lesion: hepatocellular carcinoma, dosed 105 weeks, study length 105 weeks): 0.54 mg/kg/day | TD50 (mouse, strain B6C3F1, males, in feed, site: lung, lesion: alveolar/bronchiolar adenoma + alveolar/bronchiolar carcinoma, dosed 105 weeks, study length 105 weeks): 54.9 mg/kg/day | TD50 (rat, strain Fischer 344, females, by gavage, site: any site (literature study), lesion: several types, types named in the paper, dosed 25 weeks, study length 124 weeks): 0.365 mg/kg/day | TD50 (rat, strain Fischer 344, females, by gavage, site: liver, lesion: cholangiocarcinoma + hepatocellular carcinoma + neoplastic nodule, dosed 25 weeks, study length 124 weeks): 0.596 mg/kg/day | TD50 (rat, strain Fischer 344, females, by gavage, site: liver, lesion: cholangiocarcinoma, dosed 25 weeks, study length 124 weeks): 2.1 mg/kg/day | TD50 (rat, strain Fischer 344, females, by gavage, site: liver, lesion: hepatocellular adenoma + hepatocellular carcinoma + neoplastic nodule, dosed 25 weeks, study length 124 weeks): 0.645 mg/kg/day | TD50 (rat, strain Fischer 344, females, by gavage, site: liver, lesion: hepatocellular carcinoma, dosed 25 weeks, study length 124 weeks): 1.65 mg/kg/day | TD50 (rat, strain Fischer 344, females, by gavage, site: liver, lesion: neoplastic nodule, dosed 25 weeks, study length 124 weeks): 1.1 mg/kg/day | TD50 (rat, strain Fischer 344, females, in feed, site: any site (literature study), lesion: several types, types named in the paper, dosed 104 weeks, study length 104 weeks): 2.38 mg/kg/day | TD50 (rat, strain Fischer 344, females, in feed, site: liver, lesion: hepatocellular adenoma + hepatoblastoma + hepatocellular carcinoma, dosed 104 weeks, study length 104 weeks): 0.656 mg/kg/day | TD50 (rat, strain Fischer 344, females, in feed, site: liver, lesion: hepatocellular adenoma + hepatocellular carcinoma, dosed 104 weeks, study length 104 weeks): 0.656 mg/kg/day | TD50 (rat, strain Fischer 344, females, in feed, site: liver, lesion: hepatocellular adenoma, dosed 104 weeks, study length 104 weeks): 0.7 mg/kg/day | TD50 (rat, strain Fischer 344, females, in feed, site: liver, lesion: hepatocellular carcinoma, dosed 104 weeks, study length 104 weeks): 8.22 mg/kg/day | TD50 (rat, strain Fischer 344, females, in feed, site: mammary gland, lesion: fibroadenoma, dosed 104 weeks, study length 104 weeks): 1.59 mg/kg/day | TD50 (rat, strain Fischer 344, males, by gavage, site: any site (literature study), lesion: several types, types named in the paper, dosed 25 weeks, study length 118 weeks): 0.0645 mg/kg/day | TD50 (rat, strain Fischer 344, males, by gavage, site: liver, lesion: cholangiocarcinoma + hepatocellular carcinoma + neoplastic nodule, dosed 25 weeks, study length 118 weeks): 0.148 mg/kg/day | TD50 (rat, strain Fischer 344, males, by gavage, site: liver, lesion: cholangiocarcinoma, dosed 25 weeks, study length 118 weeks): 14.4 mg/kg/day | TD50 (rat, strain Fischer 344, males, by gavage, site: liver, lesion: hepatocellular adenoma + hepatocellular carcinoma + neoplastic nodule, dosed 25 weeks, study length 118 weeks): 0.151 mg/kg/day | TD50 (rat, strain Fischer 344, males, by gavage, site: liver, lesion: hepatocellular carcinoma, dosed 25 weeks, study length 118 weeks): 1.3 mg/kg/day | TD50 (rat, strain Fischer 344, males, by gavage, site: liver, lesion: neoplastic nodule, dosed 25 weeks, study length 118 weeks): 0.168 mg/kg/day | TD50 (rat, strain Fischer 344, males, in feed, site: any site (literature study), lesion: several types, types named in the paper, dosed 104 weeks, study length 104 weeks): 1.56 mg/kg/day | TD50 (rat, strain Fischer 344, males, in feed, site: liver, lesion: hepatocellular adenoma + hepatoblastoma + hepatocellular carcinoma, dosed 104 weeks, study length 104 weeks): 0.408 mg/kg/day | TD50 (rat, strain Fischer 344, males, in feed, site: liver, lesion: hepatocellular adenoma + hepatocellular carcinoma, dosed 104 weeks, study length 104 weeks): 0.408 mg/kg/day | TD50 (rat, strain Fischer 344, males, in feed, site: liver, lesion: hepatocellular adenoma, dosed 104 weeks, study length 104 weeks): 0.461 mg/kg/day | TD50 (rat, strain Fischer 344, males, in feed, site: liver, lesion: hepatocellular carcinoma, dosed 104 weeks, study length 104 weeks): 1.19 mg/kg/day

FC(F)Cl
carcinogen call (mouse, strain Swiss, females, inhaled, site: any site (literature study), lesion: malignant tumor, dosed 78 weeks, study length 104 weeks): negative (inactive) | carcinogen call (mouse, strain Swiss, females, inhaled, site: any site (literature study), lesion: several types, types named in the paper, dosed 78 weeks, study length 104 weeks): negative (inactive) | carcinogen call (mouse, strain Swiss, females, inhaled, site: lung, lesion: adenoma, dosed 78 weeks, study length 104 weeks): negative (inactive) | TD50 (mouse, strain Swiss, males, inhaled, site: any site (literature study), lesion: malignant tumor, dosed 78 weeks, study length 104 weeks): 98300 mg/kg/day (inactive) | carcinogen call (mouse, strain Swiss, males, inhaled, site: any site (literature study), lesion: several types, types named in the paper, dosed 78 weeks, study length 104 weeks): negative (inactive) | carcinogen call (mouse, strain Swiss, males, inhaled, site: lung, lesion: adenoma, dosed 78 weeks, study length 104 weeks): negative (inactive) | TD50 (rat, strain Sprague-Dawley, females, inhaled, site: any site (literature study), lesion: malignant tumor, dosed 104 weeks, study length 104 weeks): 20100 mg/kg/day (inactive) | TD50 (rat, strain Sprague-Dawley, females, inhaled, site: any site (literature study), lesion: several types, types named in the paper, dosed 104 weeks, study length 104 weeks): 26000 mg/kg/day (inactive) | carcinogen call (rat, strain Sprague-Dawley, females, inhaled, site: liver, lesion: angiosarcoma, dosed 104 weeks, study length 104 weeks): negative (inactive) | carcinogen call (rat, strain Sprague-Dawley, males, inhaled, site: any site (literature study), lesion: malignant tumor, dosed 104 weeks, study length 104 weeks): negative (inactive) | TD50 (rat, strain Sprague-Dawley, males, inhaled, site: any site (literature study), lesion: several types, types named in the paper, dosed 104 weeks, study length 104 weeks): 6540 mg/kg/day (inactive) | carcinogen call (rat, strain Sprague-Dawley, males, inhaled, site: liver, lesion: angiosarcoma, dosed 104 weeks, study length 104 weeks): negative (inactive)

Cl
TD50 (rat, strain Fischer 344, males, in feed, site: adrenal medulla, lesion: pheochromocytoma, dosed 104 weeks, study length 104 weeks): 6210 mg/kg/day (inactive) | TD50 (rat, strain Fischer 344, males, in feed, site: mammary gland, lesion: fibroadenoma, dosed 104 weeks, study length 104 weeks): 33500 mg/kg/day (inactive) | carcinogen call (rat, strain Sprague-Dawley, males, inhaled, site: liver, lesion: hepatocellular carcinoma, dosed 128 weeks, study length 128 weeks): negative (inactive) | carcinogen call (rat, strain Sprague-Dawley, males, inhaled, site: nasal mucosa, lesion: one or several types, types not named, dosed 128 weeks, study length 128 weeks): negative (inactive) | TD50 (rat, strain Wistar-random, females, in feed, site: urinary bladder, lesion: transitional-cell papilloma, dosed 130 weeks, study length 130 weeks): 79500 mg/kg/day

— PubChem BioAssay AID1745844 (Carcinogenic Potency Database (CPDB), 2022)
